Measurements reported in publication PMC9904262, “Omics analysis of Mycobacterium tuberculosis isolates uncovers Rv3094c, an ethionamide metabolism-associated gene” (Communications Biology, 2023).

Assays:
[1] = molecular target: T1, EthA (Mycobacterium tuberculosis, UniProt P9WNF9); assay type: cell-based; details: ethionamide 80 µg/ml (Methods), 37 °C, up to 6 h
T1 construct: N-terminal 6xHis tag kept (pET28a), expressed in intact E. coli BL21(DE3); not purified

[2] = molecular target: T2, Rv3094c (Mycobacterium tuberculosis, UniProt O05773)
T2 sequence (O05773 entry or part of it): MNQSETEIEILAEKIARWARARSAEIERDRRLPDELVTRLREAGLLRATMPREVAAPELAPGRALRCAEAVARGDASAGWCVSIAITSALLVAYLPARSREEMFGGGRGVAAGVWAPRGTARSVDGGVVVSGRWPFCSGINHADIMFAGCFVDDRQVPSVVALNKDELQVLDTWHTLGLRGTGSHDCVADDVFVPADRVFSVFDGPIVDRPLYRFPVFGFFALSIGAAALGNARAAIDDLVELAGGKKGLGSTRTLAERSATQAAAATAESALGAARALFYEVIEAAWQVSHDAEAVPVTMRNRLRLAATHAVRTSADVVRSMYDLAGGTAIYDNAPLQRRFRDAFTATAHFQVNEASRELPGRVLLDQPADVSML

[3] = molecular target: T2, Rv3094c; remark: listed apart in the source
[4] = molecular target: the molecule itself; experiment: crystal structure; crystals of apo-Rv3094c, Rv3094c-FMN and Rv3094c-FMN-ETH; 0.2 M sodium nitrate, 0.1 M Bis Tris propane pH 8.5, 20% PEG3350, 16 °C; multimeric state analysed with PDBePISA

T1 sequence (P9WNF9 whole entry): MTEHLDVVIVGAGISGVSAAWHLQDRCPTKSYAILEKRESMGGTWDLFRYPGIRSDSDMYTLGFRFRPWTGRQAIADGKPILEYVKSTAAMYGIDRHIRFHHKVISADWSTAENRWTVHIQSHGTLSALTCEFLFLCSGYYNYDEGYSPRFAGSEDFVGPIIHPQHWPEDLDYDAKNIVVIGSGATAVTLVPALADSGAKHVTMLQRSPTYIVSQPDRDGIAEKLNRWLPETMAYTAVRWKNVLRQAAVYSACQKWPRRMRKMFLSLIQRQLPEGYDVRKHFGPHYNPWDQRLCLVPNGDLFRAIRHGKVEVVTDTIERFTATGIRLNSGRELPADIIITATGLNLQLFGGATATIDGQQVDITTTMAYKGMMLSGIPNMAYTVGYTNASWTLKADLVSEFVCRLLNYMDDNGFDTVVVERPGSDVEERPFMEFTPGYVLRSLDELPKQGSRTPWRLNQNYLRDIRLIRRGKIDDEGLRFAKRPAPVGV

Molecule | HPLC-UV of E. coli culture supernatant, LC-MS/MS [1] | HPLC-UV of E. coli culture supernatant, LC-MS/MS [2] | X-ray crystallography [3] | stoichiometry N [4]
CCc1cc(C(N)=S=O)ccn1 [ETH-SO] | We synthesized an ETH-SO standard, and confirmed the new peak to be ETH-SO | We synthesized an ETH-SO standard, and confirmed the new peak to be ETH-SO | – | –
CCc1cc(C(N)=S)ccn1 [ethionamide] | in supernatants from Rv3094c and ethA overexpression strains declined over time | Rv3094c must be a monooxygenase that can directly sulfoxidise ethionamide, forming ETH-SO | in complex with FMN (Rv3094c-FMN; Supplementary Fig. 4b) and ethionamide (Rv3094c-FMN-ETH | –
Cc1cc2nc3c(=O)[nH]c(=O)nc-3n(C[C@H](O)[C@H](O)[C@H](O)COP(=O)(O)O)c2cc1C [flavin mononucleotide] | – | – | Rv3094c in complex with FMN (Rv3094c-FMN; Supplementary Fig. 4b) | –
Rv3094c (enzyme, also called apo-Rv3094c; Rv3094c-FMN) NQSETEIEILAEKIARWARARSAEIERDRRLPDELVTRLREAGLLRATMPREVAAPELAPGRALRCAEAVARGDASAGWCVSIAITSALLVAYLPARSREEMFGGGRGVAAGVWAPRGTARSVDGGVVVSGRWPFCSGINHADIMFAGCFVDDRQVPSVVALNKDELQVLDTWHTLGLRGTGSHDCVADDVFVPADRVFSVFDGPIVDRPLYRFPVFGFFALSIGAAALGNARAAIDDLVELAGGKKGLGSTRTLAERSATQAAAATAESALGAARALFYEVIEAAWQVSHDAEAVPVTMRNRLRLAATHAVRTSADVVRSMYDLAGGTAIYDNAPLQRRFRDAFTATAHFQVNEASRELPGRVLLDQPADVSML | – | – | – | 4
